The record followed here is US20240409557A1, “5,6-FUSED AND 6,6-FUSED BICYCLIC ALCOHOLS AND ETHERS AND COMPOSITIONS FOR USE AS 15-PROSTAGLANDIN DEHYDROGENASE MODULATORS” (AMGEN INC., priority 2023, published 2024).

Each structure is given as a SMILES string.

For assay [1], the target named is T1, human recombinant 15-PGDH (Homo sapiens, UniProt P15428).
T1 sequence (P15428 1-266): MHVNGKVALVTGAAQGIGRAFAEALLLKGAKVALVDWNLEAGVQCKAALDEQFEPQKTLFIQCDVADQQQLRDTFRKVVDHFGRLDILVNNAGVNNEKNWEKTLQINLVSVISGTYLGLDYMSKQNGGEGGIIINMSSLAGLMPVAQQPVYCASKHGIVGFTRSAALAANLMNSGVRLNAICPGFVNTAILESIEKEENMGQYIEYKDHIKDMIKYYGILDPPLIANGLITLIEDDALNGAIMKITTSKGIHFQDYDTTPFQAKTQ
Nature of the assay: Recombinant 15-PGDH enzymatic inhibition assay (PGDH-Lumi, NADH signal). The class given is biochemical. Conditions: recombinant 15-PGDH; 15 min pre-incubation, 60 min reaction with PGE2 and NAD+, NADH signal. As for the experimental part:
These assays measured 15-PGDH enzymatic activity by quantifying the amount of NADH produced during a 60-minute reaction initiated by the addition of PGE2 and NAD+. Under the conditions of these experiments, the increase of NADH signal upon oxidation of PGE2 and reduction of NAD+ was linearly proportional to 15-PGDH enzymatic activity. The recombinant human, mouse, rat and dog 15-PGDH enzymatic assays were performed in a 25 μL volume of reaction buffer containing 50 mM Tris, pH 7.5, 0.01% Tween-20 and […] DTT in a 384-well microtiter plate. In concentration-response experiments with tested compounds, 22 concentrations from 2-fold serial dilutions in DMSO were pre-incubated with 15-PGDH for 15 minutes at room temperature. Then, PGE2 and β-NAD+ were added to initiate the 15-PGDH reaction. After 60 minutes at room temperature, the reaction was quenched and NADH signal was measured using a microtiter plate reader.
The following data (Table 27-1) provides the IC50 in μM of each compound for inhibiting enzymatic activity of the recombinant 15-PGDH in the assay described above.

In another assay the target is T2, 15-PGDH in A549 cells (Homo sapiens, UniProt P15428).
T2 construct: endogenous in cells; host or cells: A549
T2 sequence (P15428 1-266): T1 sequence (P15428 1-266)
Briefly: A549 cellular 15-PGDH assay (PGE2 accumulation, HTRF). It counts as cell-based. As to conditions: interleukin-stimulated, inhibitor 24 hrs, PGE2 by competitive HTRF, read-out: A549 Cell Assay IC50. From the text:
This assay was used for the quantification of IL-13 induced Native Prostaglandin E2 (PGE2) produced by A549 cells (epithelial cells from lung carcinoma) in cell culture supernatants. […] PGE2 was detected in a competitive HTRF assay by using anti PGE2 antibody labeled with Europium cryptate, and PGE2 labeled with […]. The PGE2 present in the sample competes with the binding between the two HTRF detection solutions (reagents) and thereby prevents FRET from occurring. The specific signal is inversely proportional to the PGE2 concentration. From this binding data, IC50 values were calculated.
For orientation: Time-resolved FRET reads energy transfer from a long-lived donor to a nearby acceptor.

With `CO[C@H]1C[C@](O)(c2sc3nc(-c4cnc5nn(C)cc5c4)ccc3c2Cl)C1` [Compound C69C, cis-1-(3-chloro-6-(2-methyl-2H-pyrazolo[3,4-b]pyridin-5-yl)thieno[2,3-b]pyridin-2-yl)-3-methoxycyclobutanol], the IC50 was determined as 1160 pM in assay [1] and 722 pM at 15-PGDH in A549 cells.

In the case of `OC1(c2cc3ccc(-c4cnc5[nH]cnc5c4)nc3s2)CC(F)(F)C1` [Compound C41, 3,3-difluoro-1-(6-(3H-imidazo[4,5-b]pyridin-6-yl)thieno[2,3-b]pyridin-2-yl)cyclobutanol], the IC50 in assay [1] came to 1240 pM; at 15-PGDH in A549 cells it was 2150 pM.

Regarding `O[C@H](c1cc2ccc(-c3cnc4[nH]ncc4c3)nc2s1)C1CC(F)(F)C1` (single isomer, unassigned) [Compound B47S], the IC50 in assay [1] was 758 pM; at 15-PGDH in A549 cells, 1930 pM.

As for `Cn1cc2cc(-c3ccc4cc(C5(O)CC6(COC6)C5)sc4n3)cnc2n1` [Compound C28], the 50% inhibitory concentration (IC50) in assay [1] was 472 pM; at 15-PGDH in A549 cells, 452 pM.

Take `Cn1cc2cc(-c3cnc4cc([C@H](O)C5CC(F)(F)C5)sc4n3)cnc2n1` [Compound B92R, (R)-(3,3-difluorocyclobutyl)(3-(2-methyl-2H-pyrazolo[3,4-b]pyridin-5-yl)thieno[2,3-b]pyrazin-6-yl)methanol]: the IC50 in assay [1] was determined as 511 pM; on 15-PGDH in A549 cells, 409 pM.

With `Cn1cc2cc(-c3ccc4cc([C@H](O)[C@H]5C[C@H](C(F)(F)F)C5)sc4n3)cnc2n1` (single isomer, unassigned) [Compound B84RT], the results for the half-maximal inhibitory concentration (IC50) (in assay [1]; on 15-PGDH in A549 cells) were 365 pM and 515 pM, respectively.

Regarding `Cn1cc2cc(-c3ccc4cc([C@H](O)C5CCC(F)(F)CC5)sc4n3)cnc2n1` (single isomer, unassigned) [Compound B31R], the IC50 was 203 pM in assay [1] and 530 pM at 15-PGDH in A549 cells.

Take `Cn1cc2cc(-c3ncc4nc([C@]5(O)C[C@@H](C(F)F)C5)sc4n3)cnc2n1` [Compound C109C]: the half-inhibitory concentration (IC50) is 3350 pM in assay [1] and 8480 pM at 15-PGDH in A549 cells.

`Cn1cc2cc(-c3ccc4cc([C@@H](O)C5COC5)sc4n3)cnc2n1` (single isomer, unassigned) [Compound B28S]: the IC50 in assay [1] was found to be 12200 pM; on 15-PGDH in A549 cells it was 9560 pM.

In the case of `Cn1cc2cc(-c3ccc4cc(C(O)C5CCOC5)sc4n3)cnc2n1` (stereo not shown) [Compound B19], the results for the half-maximal inhibitory concentration (IC50) (in assay [1]; on 15-PGDH in A549 cells) were 538 pM and 171 pM, respectively.

For `COCCC(O)c1cc2ccc(-c3cnc4nn(C)cc4c3)nc2s1` (stereo not shown) [Compound B29, 3-methoxy-1-(6-(2-methyl-2H-pyrazolo[3,4-b]pyridin-5-yl)thieno[2,3-b]pyridin-2-yl)propan-1-ol], the 50% inhibitory concentration (IC50) in assay [1] worked out at 380 pM; at 15-PGDH in A549 cells, 1040 pM.

On to `Cn1nnc2cc(-c3ccc4cc([C@]5(O)C[C@@H](C(F)(F)F)C5)sc4n3)cnc21` [Compound C79C, cis-1-(6-(3-methyl-3H-[1,2,3]triazolo[4,5-b]pyridin-6-yl)thieno[2,3-b]pyridin-2-yl)-3-(trifluoromethyl)cyclobutanol], for which the 50% inhibitory concentration (IC50) in assay [1] worked out at 585 pM; at 15-PGDH in A549 cells, 832 pM.

In the case of `Cn1nnc2cc(-c3ccc4nc([C@]5(O)C[C@H](OC(F)(F)F)C5)sc4n3)cnc21` [Compound C112C, cis-1-(5-(3-methyl-3H-[1,2,3]triazolo[4,5-b]pyridin-6-yl)[1,3]thiazolo[5,4-b]pyridin-2-yl)-3-(trifluoromethoxy)cyclobutanol], the IC50 was determined as 589 pM in assay [1] and 3150 pM on 15-PGDH in A549 cells.

Regarding `CO[C@]1(C(F)(F)F)C[C@](O)(c2cc3ccc(-c4cnc5nn(C)cc5c4)nc3s2)C1` (single isomer, unassigned) [Compound C66T, trans-3-methoxy-1-(6-(2-methyl-2H-pyrazolo[3,4-b]pyridin-5-yl)thieno[2,3-b]pyridin-2-yl)-3-(trifluoromethyl)cyclobutanol], the figures for the half-inhibitory concentration (IC50) (in assay [1]; on 15-PGDH in A549 cells) were 470 pM and 22.3 pM, respectively.

With `Cn1cc2cc(-c3ccc4cc([C@H](O)C(F)(F)F)sc4n3)cnc2n1` (single isomer, unassigned) [Compound B23R], the IC50 came out at 422 pM in assay [1] and 389 pM on 15-PGDH in A549 cells.

For `Cn1cc2cc(-c3ccc4cc([C@H](O)CCC(F)(F)F)sc4c3)cnc2n1` (single isomer, unassigned) [Compound B60R], the IC50 was 1170 pM in assay [1] and 3380 pM on 15-PGDH in A549 cells.

As to `Cc1c([C@@H](O)C2CC(F)(F)C2)sc2nc(-c3cnc4nn(C)cc4c3)ccc12` (single isomer, unassigned) [Compound B83S], the IC50 in assay [1] was found to be 5130 pM; on 15-PGDH in A549 cells, 1110 pM.

In the case of `Cc1nc2cc(-c3ccc4cc([C@]5(O)C[C@@H](C(F)F)C5)sc4n3)cnc2[nH]1` [Compound C93C, cis-3-(difluoromethyl)-1-(6-(2-methyl-3H-imidazo[4,5-b]pyridin-6-yl)thieno[2,3-b]pyridin-2-yl)cyclobutanol], the 50% inhibitory concentration (IC50) in assay [1] worked out at 587 pM; at 15-PGDH in A549 cells it was 1960 pM.

Take `CO[C@H]1C[C@](O)(c2cc3cnc(-c4cnc5nn(C)cc5c4)nc3s2)C1` [Compound C94C, cis-3-methoxy-1-(2-(2-methyl-2H-pyrazolo[3,4-b]pyridin-5-yl)thieno[2,3-d]pyrimidin-6-yl)cyclobutanol]: the half-maximal inhibitory concentration (IC50) in assay [1] turned out to be 2000 pM; at 15-PGDH in A549 cells, 1450 pM.

Consider `Cc1cn2ccc(-c3ccc4cc(C5(O)CC(F)(F)C5)sc4n3)cc2n1` [Compound C44, 3,3-difluoro-1-(6-(2-methylimidazo[1,2-a]pyridin-7-yl)thieno[2,3-b]pyridin-2-yl)cyclobutanol], for which the IC50 came to 7560 pM in assay [1] and 6170 pM on 15-PGDH in A549 cells.

With `Cn1cc2cc(-c3ccc4cc([C@@H](O)C56CC(C5)C6)sc4n3)cnc2n1` (single isomer, unassigned) [Compound B87S], the IC50 in assay [1] was found to be 28800 pM; at 15-PGDH in A549 cells, 572 pM.

As to `Cn1cc2cc(-c3ccc4cc([C@]5(O)C[C@@]6(CCO6)C5)sc4n3)cnc2n1` (single isomer, unassigned) [Compound C56T, trans-6-(6-(2-methyl-2H-pyrazolo[3,4-b]pyridin-5-yl)thieno[2,3-b]pyridin-2-yl)-1-oxaspiro[3.3]heptan-6-ol], the IC50 in assay [1] amounted to 1180 pM; on 15-PGDH in A549 cells it was 997 pM.

`Cn1cc2cc(-c3ccc4cc(C5(O)CC5)sc4n3)cnc2n1` [Compound C60, 1-(6-(2-methyl-2H-pyrazolo[3,4-b]pyridin-5-yl)thieno[2,3-b]pyridin-2-yl)cyclopropanol]: the half-maximal inhibitory concentration (IC50) in assay [1] is 52100 pM; at 15-PGDH in A549 cells it was 26700 pM.

Take `OC1(c2cc3ccc(-c4cncnc4)nc3s2)CC(F)(F)C1` [Compound C46, 3,3-difluoro-1-(6-(5-pyrimidinyl)thieno[2,3-b]pyridin-2-yl)cyclobutanol]: the figures for the half-maximal inhibitory concentration (IC50) (in assay [1]; at 15-PGDH in A549 cells) were 26100 pM and 12300 pM, respectively.

Turning to `OC1(c2cc3ccc(-c4cnc5nccnc5c4)nc3s2)CC(F)(F)C1` [Compound C47, 3,3-difluoro-1-(6-(pyrido[2,3-b]pyrazin-7-yl)thieno[2,3-b]pyridin-2-yl)cyclobutanol], the 50% inhibitory concentration (IC50) in assay [1] came to 996 pM; on 15-PGDH in A549 cells, 373 pM.

As for `CO[C@H]1C[C@H]([C@@H](O)c2cc3ccc(-c4cnc5nn(C)cc5c4)nc3s2)C1` (single isomer, unassigned) [Compound B88RT], the results for the IC50 (in assay [1]; at 15-PGDH in A549 cells) were 524 pM and 511 pM, respectively.

What is called IC50 is the concentration needed to halve the response being measured.
